# Patent US20250051344A1, “BIFUNCTIONAL SELECTIVE DEGRADERS OF SMARCA2 AND THERAPEUTIC USES THEREOF” (Nurix Therapeutics, Inc., priority 2023, published 2025)
# Key:
# SMARCA4 = biological target: T1, SMARCA4 (Homo sapiens, UniProt P51532); experiment: Cellular degradation assay, SMARCA4 (Table 1); assay type: cell-based
# T1 construct: endogenous in cells
# SMARCA2 = biological target: T2, SMARCA2 (Homo sapiens, UniProt P51531); experiment: SMARCA2 Cellular Degradation Assay (Western blot analysis on Jess platform); assay type: cell-based; settings: for DC50 / Dmax: cellular degradation; for Fold Selectivity SMARCA4/2: ratio DC50 SMARCA4 / DC50 SMARCA2
# T2 construct: endogenous in cells
# Summary of the method: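 Cells recovered from tumors are lysed, cleared at 20,817×g, and protein is quantified by BCA. Equal protein (5 μg) is then probed on Jess for SMARCA2 and actin, and normalized SMARCA2 signal is reported against vehicle.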
# T2 sequence (P51531 whole entry, species assumed): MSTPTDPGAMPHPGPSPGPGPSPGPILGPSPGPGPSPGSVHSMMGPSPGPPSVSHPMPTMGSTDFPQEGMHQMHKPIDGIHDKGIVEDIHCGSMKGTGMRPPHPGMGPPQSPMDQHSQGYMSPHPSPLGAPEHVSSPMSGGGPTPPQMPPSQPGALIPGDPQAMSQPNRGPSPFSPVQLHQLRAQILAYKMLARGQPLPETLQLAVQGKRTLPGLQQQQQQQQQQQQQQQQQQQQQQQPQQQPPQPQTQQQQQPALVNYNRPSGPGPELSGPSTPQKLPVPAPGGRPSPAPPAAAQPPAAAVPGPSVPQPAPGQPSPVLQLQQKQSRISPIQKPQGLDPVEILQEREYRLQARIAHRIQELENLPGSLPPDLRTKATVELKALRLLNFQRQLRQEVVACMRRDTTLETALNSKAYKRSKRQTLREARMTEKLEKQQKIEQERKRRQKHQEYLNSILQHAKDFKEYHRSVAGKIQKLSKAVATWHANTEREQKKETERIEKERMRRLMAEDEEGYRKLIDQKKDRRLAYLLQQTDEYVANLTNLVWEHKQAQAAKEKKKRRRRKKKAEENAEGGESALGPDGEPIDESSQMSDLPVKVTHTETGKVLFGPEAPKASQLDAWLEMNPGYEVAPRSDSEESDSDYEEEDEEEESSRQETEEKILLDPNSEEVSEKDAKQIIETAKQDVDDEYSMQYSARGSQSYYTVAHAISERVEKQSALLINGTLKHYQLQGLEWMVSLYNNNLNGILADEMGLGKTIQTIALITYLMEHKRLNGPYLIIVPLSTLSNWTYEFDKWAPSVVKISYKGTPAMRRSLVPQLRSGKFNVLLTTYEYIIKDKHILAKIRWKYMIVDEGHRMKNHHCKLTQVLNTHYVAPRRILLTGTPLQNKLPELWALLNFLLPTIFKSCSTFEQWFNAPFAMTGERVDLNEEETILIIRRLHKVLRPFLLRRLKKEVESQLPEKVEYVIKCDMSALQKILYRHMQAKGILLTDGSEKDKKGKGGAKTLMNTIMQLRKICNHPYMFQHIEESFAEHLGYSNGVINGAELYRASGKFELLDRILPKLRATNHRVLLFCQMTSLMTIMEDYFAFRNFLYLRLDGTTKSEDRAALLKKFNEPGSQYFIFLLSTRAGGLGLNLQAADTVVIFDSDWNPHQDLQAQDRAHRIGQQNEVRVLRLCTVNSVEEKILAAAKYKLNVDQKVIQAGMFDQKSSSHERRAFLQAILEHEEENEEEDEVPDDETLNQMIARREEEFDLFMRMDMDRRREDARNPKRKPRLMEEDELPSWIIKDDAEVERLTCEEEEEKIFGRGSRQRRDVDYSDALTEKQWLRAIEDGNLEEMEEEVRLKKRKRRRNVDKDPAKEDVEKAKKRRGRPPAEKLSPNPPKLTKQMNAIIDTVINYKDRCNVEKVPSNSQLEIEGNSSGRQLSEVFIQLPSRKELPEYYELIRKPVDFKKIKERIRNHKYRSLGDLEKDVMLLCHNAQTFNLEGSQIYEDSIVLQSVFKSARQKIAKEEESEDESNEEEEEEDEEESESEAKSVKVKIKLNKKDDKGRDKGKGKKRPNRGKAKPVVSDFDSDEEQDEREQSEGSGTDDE
# T1 sequence (P51532 whole entry, species assumed): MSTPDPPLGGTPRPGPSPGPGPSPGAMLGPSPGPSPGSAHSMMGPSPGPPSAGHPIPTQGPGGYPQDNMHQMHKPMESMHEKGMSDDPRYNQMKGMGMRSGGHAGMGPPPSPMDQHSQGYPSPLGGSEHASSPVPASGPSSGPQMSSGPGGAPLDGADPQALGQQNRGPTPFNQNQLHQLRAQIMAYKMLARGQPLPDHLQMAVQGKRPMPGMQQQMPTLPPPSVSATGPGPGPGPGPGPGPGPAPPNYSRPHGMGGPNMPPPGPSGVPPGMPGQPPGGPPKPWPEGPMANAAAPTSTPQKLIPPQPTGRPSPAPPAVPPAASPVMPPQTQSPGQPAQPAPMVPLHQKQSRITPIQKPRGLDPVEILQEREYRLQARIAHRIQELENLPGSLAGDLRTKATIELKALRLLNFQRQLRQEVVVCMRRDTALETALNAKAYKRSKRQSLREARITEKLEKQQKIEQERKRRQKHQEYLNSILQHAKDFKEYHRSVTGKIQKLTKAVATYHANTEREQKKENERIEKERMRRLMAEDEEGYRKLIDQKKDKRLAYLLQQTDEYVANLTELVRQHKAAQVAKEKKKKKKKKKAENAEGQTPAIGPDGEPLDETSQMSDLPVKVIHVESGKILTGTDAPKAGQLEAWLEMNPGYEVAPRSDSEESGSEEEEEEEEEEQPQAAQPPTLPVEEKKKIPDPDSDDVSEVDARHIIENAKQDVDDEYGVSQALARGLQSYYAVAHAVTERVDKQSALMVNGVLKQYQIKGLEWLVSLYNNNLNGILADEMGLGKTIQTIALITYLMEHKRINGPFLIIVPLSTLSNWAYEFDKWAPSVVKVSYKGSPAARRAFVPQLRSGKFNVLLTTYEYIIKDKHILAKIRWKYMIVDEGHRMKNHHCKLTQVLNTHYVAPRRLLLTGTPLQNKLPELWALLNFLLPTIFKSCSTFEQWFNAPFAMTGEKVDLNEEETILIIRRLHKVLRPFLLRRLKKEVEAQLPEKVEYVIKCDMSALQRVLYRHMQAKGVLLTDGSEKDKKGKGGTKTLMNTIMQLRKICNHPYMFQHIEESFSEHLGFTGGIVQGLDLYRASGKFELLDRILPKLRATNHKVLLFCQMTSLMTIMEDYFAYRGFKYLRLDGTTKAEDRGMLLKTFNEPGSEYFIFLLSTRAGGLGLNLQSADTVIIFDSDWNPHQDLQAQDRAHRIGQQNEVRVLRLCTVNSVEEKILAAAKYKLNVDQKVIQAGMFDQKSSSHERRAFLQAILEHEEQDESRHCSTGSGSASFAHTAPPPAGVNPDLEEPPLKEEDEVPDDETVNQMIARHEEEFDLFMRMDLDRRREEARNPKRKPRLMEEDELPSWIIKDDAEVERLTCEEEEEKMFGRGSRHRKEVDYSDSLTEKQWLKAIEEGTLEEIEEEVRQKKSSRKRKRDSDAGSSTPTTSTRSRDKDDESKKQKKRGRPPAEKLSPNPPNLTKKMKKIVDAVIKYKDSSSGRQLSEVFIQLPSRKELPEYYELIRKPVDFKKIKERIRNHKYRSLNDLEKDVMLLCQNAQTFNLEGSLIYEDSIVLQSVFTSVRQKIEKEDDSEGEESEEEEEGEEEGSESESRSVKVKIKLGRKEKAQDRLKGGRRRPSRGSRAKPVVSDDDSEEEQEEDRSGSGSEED
Compound,DC50 (SMARCA4) [nM],Dmax (SMARCA4) [%],DC50 (SMARCA2) [nM],Dmax (SMARCA2) [%],Fold Selectivity SMARCA4/2 (SMARCA2)
"O=C1CC[C@H](c2ccc(N3CCC(CN4CC5(C4)CN(C(=O)C4(c6ccccc6)CCN(c6cnnc(-c7ccccc7O)c6)CC4)C5)CC3)cc2)C(=O)N1 [Example 15, (3R)-3-(4-{4-[(6-{1-[6-(2-hydroxyphenyl)pyridazin-4-yl]-4-phenylpiperidine-4-carbonyl}-2,6-diazaspiro[3.3]heptan-2-yl)methyl]piperidin-1-yl}phenyl)piperidine-2,6-dione]",5030,49.3,14.8,79.9,340.31
"O=C1CC[C@H](c2ccc(N3CCC(CN4CC5(CCN(C(=O)C6(c7ccccc7)CCN(c7cnnc(-c8ccccc8O)c7)CC6)C5)C4)CC3)cc2)C(=O)N1 [Example 16, (3R)-3-(4-{4-[(6-{1-[6-(2-hydroxyphenyl)pyridazin-4-yl]-4-phenylpiperidine-4-carbonyl}-2,6-diazaspiro[3.4]octan-2-yl)methyl]piperidin-1-yl}phenyl)piperidine-2,6-dione]",5020,56.1,7.48,82.6,671.32
"O=C1CC[C@H](c2ccc(N3CCC(CN4CCC5(C4)CN(C(=O)C4(c6ccccc6)CCN(c6cnnc(-c7ccccc7O)c6)CC4)C5)CC3)cc2)C(=O)N1 [Example 17, (3R)-3-(4-{4-[(2-{1-[6-(2-hydroxyphenyl)pyridazin-4-yl]-4-phenylpiperidine-4-carbonyl}-2,6-diazaspiro[3.4]octan-6-yl)methyl]piperidin-1-yl}phenyl)piperidine-2,6-dione]",4370,54.2,13.9,78,314.31
"CC1(C(=O)N2CC3(CN(CC4CCN(c5ccc([C@H]6CCC(=O)NC6=O)cc5)CC4)C3)C2)CCN(c2cnnc(-c3ccccc3O)c2)CC1 [Example 23, (3R)-3-(4-{4-[(6-{1-[6-(2-hydroxyphenyl)pyridazin-4-yl]-4-methylpiperidine-4-carbonyl}-2,6-diazaspiro[3.3]heptan-2-yl)methyl]piperidin-1-yl}phenyl)piperidine-2,6-dione]",,39.1,78.5,55.9,127.44
"O=C1CC[C@H](c2ccc(N3CCC(CN4CC5(C4)CN(C(=O)C4(C6CC6)CCN(c6cnnc(-c7ccccc7O)c6)CC4)C5)CC3)cc2)C(=O)N1 [Example 24, (3R)-3-(4-{4-[(6-{4-cyclopropyl-1-[6-(2-hydroxyphenyl)pyridazin-4-yl]piperidine-4-carbonyl}-2,6-diazaspiro[3.3]heptan-2-yl)methyl]piperidin-1-yl}phenyl)piperidine-2,6-dione]",,31.7,62.7,56.5,159.52
"O=C1CC[C@H](c2ccc(N3CCC(CN4CC(F)C5(C4)CN(C(=O)C4(c6ccccc6)CCN(c6cnnc(-c7ccccc7O)c6)CC4)C5)CC3)cc2)C(=O)N1 (stereo partly drawn) [Example 25, (3R)-3-(4-{4-[(8-fluoro-2-{1-[6-(2-hydroxyphenyl)pyridazin-4-yl]-4-phenylpiperidine-4-carbonyl}-2,6-diazaspiro[3.4]octan-6-yl)methyl]piperidin-1-yl}phenyl)piperidine-2,6-dione]",,29.4,80.7,61.5,123.86
"O=C1CC[C@@H](c2ccc(OCC3CCN(CC4CCN(C(=O)C5(c6ccccc6)CCN(c6cnnc(-c7ccccc7O)c6)CC5)CC4)CC3)cc2)C(=O)N1 [Example 35, (3S)-3-[4-({1-[(1-{1-[6-(2-hydroxyphenyl)pyridazin-4-yl]-4-phenylpiperidine-4-carbonyl}piperidin-4-yl)methyl]piperidin-4-yl}methoxy)phenyl]piperidine-2,6-dione]",,22.6,80.5,57,124.30
"O=C1CC[C@H](c2ccc(OCC3CCN(CC4CCN(C(=O)C5(c6ccccc6)CCN(c6cnnc(-c7ccccc7O)c6)CC5)CC4)CC3)cc2)C(=O)N1 [Example 36, (3R)-3-[4-({1-[(1-{1-[6-(2-hydroxyphenyl)pyridazin-4-yl]-4-phenylpiperidine-4-carbonyl}piperidin-4-yl)methyl]piperidin-4-yl}methoxy)phenyl]piperidine-2,6-dione]",,27.4,32.3,63.9,309.98
"O=C1CC[C@H](c2ccc(N3CCC(CN4CCCC4C4CCCN(C(=O)C5(c6ccccc6)CCN(c6cnnc(-c7ccccc7O)c6)CC5)C4)CC3)cc2)C(=O)N1 (stereo partly drawn) [Example 37, (3R)-3-[4-(4-{[2-(1-{1-[6-(2-hydroxyphenyl)pyridazin-4-yl]-4-phenylpiperidine-4-carbonyl}piperidin-3-yl)pyrrolidin-1-yl]methyl}piperidin-1-yl)phenyl]piperidine-2,6-dione]",,33.1,,47.5,1
"O=C1CC[C@H](c2ccc(N3CCC(CN4CC5CCN(C(=O)C6(c7ccccc7)CCN(c7cnnc(-c8ccccc8O)c7)CC6)CC54)CC3)cc2)C(=O)N1 (stereo partly drawn) [Example 38, (3R)-3-(4-{4-[(3-{1-[6-(2-hydroxyphenyl)pyridazin-4-yl]-4-phenylpiperidine-4-carbonyl}-3,8-diazabicyclo[4.2.0]octan-8-yl)methyl]piperidin-1-yl}phenyl)piperidine-2,6-dione]",,3.22,,44.8,1
"O=C1CC[C@H](c2ccc(N3CCC(CN4CCC(NC(=O)C5(c6ccccc6)CCN(c6cnnc(-c7ccccc7O)c6)CC5)CC45CCC5)CC3)cc2)C(=O)N1 (stereo partly drawn) [Example 39, N-{5-[(1-{4-[(3R)-2,6-dioxopiperidin-3-yl]phenyl}piperidin-4-yl)methyl]-5-azaspiro[3.5]nonan-8-yl}-1-[6-(2-hydroxyphenyl)pyridazin-4-yl]-4-phenylpiperidine-4-carboxamide]",79.3,53.7,3.09,84.8,25.67
"O=C1CC[C@H](c2ccc(N3CCC(CN4CCCC4C4CCN(C(=O)C5(c6ccccc6)CCN(c6cnnc(-c7ccccc7O)c6)CC5)CC4)CC3)cc2)C(=O)N1 (stereo partly drawn) [Example 40, (3R)-3-[4-(4-{[2-(1-{1-[6-(2-hydroxyphenyl)pyridazin-4-yl]-4-phenylpiperidine-4-carbonyl}piperidin-4-yl)pyrrolidin-1-yl]methyl}piperidin-1-yl)phenyl]piperidine-2,6-dione]",,13.8,317,50.3,31.55
"O=C1CC[C@H](c2ccc(N3CCC(CN4CCCC5C4CCCN5C(=O)C4(c5ccccc5)CCN(c5cnnc(-c6ccccc6O)c5)CC4)CC3)cc2)C(=O)N1 (stereo partly drawn) [Example 41, (3R)-3-(4-{4-[(5-{1-[6-(2-hydroxyphenyl)pyridazin-4-yl]-4-phenylpiperidine-4-carbonyl}-decahydro-1,5-naphthyridin-1-yl)methyl]piperidin-1-yl}phenyl)piperidine-2,6-dione]",,41,,36.8,1
"O=C1CC[C@H](c2ccc(N3CCC(CN4CCCC4C4CCCCN4C(=O)C4(c5ccccc5)CCN(c5cnnc(-c6ccccc6O)c5)CC4)CC3)cc2)C(=O)N1 (stereo partly drawn) [Example 42, (3R)-3-[4-(4-{[2-(1-{1-[6-(2-hydroxyphenyl)pyridazin-4-yl]-4-phenylpiperidine-4-carbonyl}piperidin-2-yl)pyrrolidin-1-yl]methyl}piperidin-1-yl)phenyl]piperidine-2,6-dione]",,9.32,,28.7,1
"O=C1CC[C@H](c2ccc(N3CCC(CN4CC5CCCC(C4)N(C(=O)C4(c6ccccc6)CCN(c6cnnc(-c7ccccc7O)c6)CC4)C5)CC3)cc2)C(=O)N1 (stereo partly drawn) [Example 45, (3R)-3-(4-{4-[(9-{1-[6-(2-hydroxyphenyl)pyridazin-4-yl]-4-phenylpiperidine-4-carbonyl}-3,9-diazabicyclo[3.3.2]decan-3-yl)methyl]piperidin-1-yl}phenyl)piperidine-2,6-dione]",,9.72,,29.5,1
"O=C1CC[C@H](c2ccc(N3CCC(CN4CCCN(C(=O)C5(c6ccccc6)CCN(c6cnnc(-c7ccccc7O)c6)CC5)CC4)CC3)cc2)C(=O)N1 [Example 46, (3R)-3-(4-{4-[(4-{1-[6-(2-hydroxyphenyl)pyridazin-4-yl]-4-phenylpiperidine-4-carbonyl}-1,4-diazepan-1-yl)methyl]piperidin-1-yl}phenyl)piperidine-2,6-dione]",,45.1,33.7,63.3,297.00
"O=C1CC[C@H](c2ccc(N3CCC(CN4CC5CC(NC(=O)C6(c7ccccc7)CCN(c7cnnc(-c8ccccc8O)c7)CC6)C4C5)CC3)cc2)C(=O)N1 (stereo partly drawn) [Example 47, N-{2-[(1-{4-[(3R)-2,6-dioxopiperidin-3-yl]phenyl}piperidin-4-yl)methyl]-2-azabicyclo[2.2.1]heptan-6-yl}-1-[6-(2-hydroxyphenyl)pyridazin-4-yl]-4-phenylpiperidine-4-carboxamide]",,2.09,,7.19,1
"O=C1CC[C@H](c2ccc(N3CCC(CN4CCC(C5CCN(C(=O)C6(c7ccccc7)CCN(c7cnnc(-c8ccccc8O)c7)CC6)CC5)C4)CC3)cc2)C(=O)N1 (stereo partly drawn) [Example 48, (3R)-3-[4-(4-{[3-(1-{1-[6-(2-hydroxyphenyl)pyridazin-4-yl]-4-phenylpiperidine-4-carbonyl}piperidin-4-yl)pyrrolidin-1-yl]methyl}piperidin-1-yl)phenyl]piperidine-2,6-dione]",,16.3,,35.6,1
